Literature values in US20230110485A1, “MULTI-LAYER PARTICLES OF FUNCTIONAL INGREDIENTS AND METHODS OF MAKING THE SAME” (Nulixir Inc., priority 2021, published 2023).

Key:
[1] = water and n-octanol; categorization at pH = 7 unless stated otherwise

Molecule | logP [1] | inhibitory activity against fungi (many strains of fungi)
COc1cc(/C=C/c2ccccc2)oc(=O)c1 [5,6-dehydrokawain] | ~2.9 | 
COc1cc2c(c(OC)c1OC)-c1c(cc(OC)c(OC)c1OC)C[C@](C)(O)[C@@H](C)C2 [schisandrol A] | ~3.4 | 
COc1cc2c(c(OC)c1OC)-c1c(cc3c(c1OC)OCO3)CC(C)C(C)C2 (single isomer, unassigned; (-)) [(-)-schisandrin B] | ~4 | 
(-)-schisandrin C | ~3.5 | 
O=CC=Cc1ccccc1 [Cinnamaldehyde] |  | strong inhibitory activity
